Entries after “also recorded” stand apart in the source; their conditions may differ. Where a name gives a salt, the structure may show the parent alone.
System: eczema, seborrheic dermatitis and allergic skin reactions
Assay: Applicant's general experiments: compounds applied to the affected skin area alone or before a topical corticosteroid
Type: in vivo, adult patient
Conditions: for effectiveness in alleviating the symptoms: applied alone, with no steroid; for enhancement of effectiveness of the topical corticosteroid: applied to affected area prior to the topical corticosteroid, compared with topical corticosteroid alone; for effectiveness compared with hydrocortisone 2.5% alone: decongestant alone applied before hydrocortisone 0.5%
Experimental: The experiments were conducted in order to try to treat these conditions as well as to try to enhance the performance of hydrocortisone and other topical corticosteroids in the treatment of these conditions.
With respect to the use of compounds to try to enhance the effectiveness of topical corticosteroids, the experiments involved first applying to the affected area particular compounds and then shortly thereafter applying to the same affected area a topical corticosteroid. For example, compounds that were tried include eye drop solutions, nasal decongestant sprays and other kinds of compounds available over the counter or by prescription. Antihistamine and decongestant combinations were tried as a solution to be applied to the affected area prior to the application of the steroid. In addition, antihistamines alone (preceding the corticosteroid) and decongestants alone (preceding the corticosteroid) were tried. As stated above, antihistamines alone (without the corticosteroid) and decongestants alone (without the corticosteroid) were also tried.
An increase in effectiveness is defined as greater alleviation of the dermatological symptoms of the condition or speedier alleviation of the dermatological symptoms of the condition or both.
That is, the identical experiment was conducted for the same condition but without preceding (or following) the application of the corticosteroid cream with an application of any solution in according with the method of the present invention.

| Compound | effectiveness in alleviating the symptoms (HCL) | enhancement of effectiveness of the topical corticosteroid | effectiveness compared with hydrocortisone 2.5% alone | enhancement of effectiveness of the topical corticosteroid (HCL) |
| --- | --- | --- | --- | --- |
| CNC[C@H](O)c1cccc(O)c1 [phenylephrine HCL] | works somewhat to alleviate dermatological symptoms, albeit not fantastically; also recorded: mildly effective alleviation | only mild enhancement of effectiveness | performs better | – |
| c1ccc2c(CC3=NCCN3)cccc2c1 [naphazoline HCL] | works somewhat to alleviate dermatological symptoms, albeit not fantastically; also recorded: mildly effective alleviation | – | performs better | slightly greater than that of a topical corticosteroid alone; also recorded: only mild enhancement of effectiveness |

Reference: patent US20110201582A1, “METHOD AND COMPOSITION FOR TREATMENT OF SKIN CONDITIONS” (priority 2004, published 2011)
